These molecules were tested against T1, HEK cells stably transfected with tetracycline inducible hNR1 and hNR2A (Homo sapiens, UniProt Q05586+Q12879) (assay: Assay 1: Cell-Based Assay, cytosolic calcium response to positive allosteric modulators (with 30 μM glycine and 300 nM L-glutamate, EC30)). Details: Table 3; cytosolic calcium response, with 30 μM glycine and 300 nM L-glutamate (EC30); — = no plateau was reached.
T1 construct: expressed in transfected cells; host or cells: HEK cells, stably transfected, tetracycline/doxycycline inducible
Procedure, shortened: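 Cells induced 24 h with 7.5 μg mL^−1 doxycycline plus 500 μM (+)-ketamine, loaded 60 min at 37 °C with calcium dye in Mg-free HBSS (1.8 mM Ca, probenecid, 10 μM (+)-ketamine, pH 7.15). Peak RFU over 5 min after compound addition, scaled to 100 μM L-glutamate (100%) and 0 μM (0%); four-parameter Hill fit for EC50, max % if no plateau.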

T1 sequence (Q12879 23-1464, other chains not shown): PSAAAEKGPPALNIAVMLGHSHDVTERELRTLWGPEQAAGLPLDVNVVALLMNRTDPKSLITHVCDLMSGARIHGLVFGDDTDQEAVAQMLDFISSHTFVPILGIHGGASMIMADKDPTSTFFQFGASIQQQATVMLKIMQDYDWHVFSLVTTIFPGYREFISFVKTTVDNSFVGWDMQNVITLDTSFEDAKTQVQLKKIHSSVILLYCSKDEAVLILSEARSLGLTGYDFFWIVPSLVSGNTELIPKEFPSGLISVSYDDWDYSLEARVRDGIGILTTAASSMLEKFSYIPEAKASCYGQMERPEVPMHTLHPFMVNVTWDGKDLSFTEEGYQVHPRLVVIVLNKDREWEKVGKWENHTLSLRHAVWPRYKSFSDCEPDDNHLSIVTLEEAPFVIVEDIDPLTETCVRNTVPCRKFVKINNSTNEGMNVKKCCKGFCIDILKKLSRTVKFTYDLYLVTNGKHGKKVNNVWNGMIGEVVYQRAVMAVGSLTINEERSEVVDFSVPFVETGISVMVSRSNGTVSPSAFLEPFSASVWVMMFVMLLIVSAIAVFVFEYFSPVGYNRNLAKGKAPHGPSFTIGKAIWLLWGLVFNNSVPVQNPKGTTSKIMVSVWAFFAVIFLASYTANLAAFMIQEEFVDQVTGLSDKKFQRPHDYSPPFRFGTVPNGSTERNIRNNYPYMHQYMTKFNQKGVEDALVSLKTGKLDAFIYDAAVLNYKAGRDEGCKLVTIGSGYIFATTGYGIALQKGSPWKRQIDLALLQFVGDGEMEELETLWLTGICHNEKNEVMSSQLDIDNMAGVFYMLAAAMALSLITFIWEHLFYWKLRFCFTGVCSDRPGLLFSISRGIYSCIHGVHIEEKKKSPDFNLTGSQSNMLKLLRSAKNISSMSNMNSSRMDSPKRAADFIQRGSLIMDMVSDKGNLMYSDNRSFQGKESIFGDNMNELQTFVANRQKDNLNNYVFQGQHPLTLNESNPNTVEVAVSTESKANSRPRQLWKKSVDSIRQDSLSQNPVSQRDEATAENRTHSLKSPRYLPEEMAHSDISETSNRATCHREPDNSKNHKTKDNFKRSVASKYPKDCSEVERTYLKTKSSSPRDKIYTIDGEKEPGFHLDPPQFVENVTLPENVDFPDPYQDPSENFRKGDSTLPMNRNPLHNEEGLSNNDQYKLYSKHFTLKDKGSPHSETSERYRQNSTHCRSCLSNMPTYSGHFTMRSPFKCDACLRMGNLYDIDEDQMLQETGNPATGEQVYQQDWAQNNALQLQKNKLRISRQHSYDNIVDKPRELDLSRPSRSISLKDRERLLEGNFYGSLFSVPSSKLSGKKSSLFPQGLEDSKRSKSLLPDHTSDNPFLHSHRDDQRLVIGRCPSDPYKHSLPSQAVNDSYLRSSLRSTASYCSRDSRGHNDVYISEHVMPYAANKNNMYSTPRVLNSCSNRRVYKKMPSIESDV

| SMILES | EC50 |
| --- | --- |
| CNC(=O)c1c(C(F)(F)F)sc2nc(Cn3nc(C)cc3C(F)(F)F)cc(=O)n12 [compound 62, N-methyl-7-[[3-methyl-5-(trifluoromethyl)pyrazol-1-yl]methyl]-5-oxo-2-(trifluoromethyl)thiazolo[3,2-a]pyrimidine-3-carboxamide] | 24.6 µM |
| CNC(=O)c1c(C(F)(F)F)sc2nc(Cc3cccc(Cl)c3F)cc(=O)n12 [compound 64, 7-[(3-chloro-2-fluoro-phenyl)methyl]-N-methyl-5-oxo-2-(trifluoromethyl)thiazolo[3,2-a]pyrimidine-3-carboxamide] | 12.1 µM |
| Cc1cc(C(F)(F)F)n(Cc2cc(=O)n3c(C(=O)NCC(F)(F)F)c(C)sc3n2)n1 [compound 67, 2-methyl-7-[[3-methyl-5-(trifluoromethyl)pyrazol-1-yl]methyl]-5-oxo-N-(2,2,2-trifluoroethyl)thiazolo[3,2-a]pyrimidine-3-carboxamide] | 36.6 µM |
| CCNC(=O)c1c(C)sc2nc(Oc3cccc(C#N)c3F)cc(=O)n12 [compound 68, 7-(3-cyano-2-fluoro-phenoxy)-N-ethyl-2-methyl-5-oxo-thiazolo[3,2-a]pyrimidine-3-carboxamide] | 30.4 µM |
| CCNC(=O)c1c(Cl)sc2nc(Cc3cccc(C#N)c3F)cc(=O)n12 [compound 69, 2-chloro-7-[(3-cyano-2-fluoro-phenyl)methyl]-N-ethyl-5-oxo-thiazolo[3,2-a]pyrimidine-3-carboxamide] | 11.2 µM |
| CNC(=O)c1c(C)sc2nc(Cn3cc(C(F)(F)F)cn3)cc(=O)n12 [compound 72, N,2-dimethyl-5-oxo-7-[[4-(trifluoromethyl)pyrazol-1-yl]methyl]thiazolo[3,2-a]pyrimidine-3-carboxamide] | 62.6 µM |
| Cc1sc2nc(Oc3cccc(C(F)(F)F)c3F)cc(=O)n2c1C1CC1 [compound 73, 3-cyclopropyl-7-[2-fluoro-3-(trifluoromethyl)phenoxy]-2-methyl-thiazolo[3,2-a]pyrimidin-5-one] | 40.1 µM |
| CNC(=O)Cc1c(C(F)(F)F)sc2nc(Cc3cccc(C(F)(F)F)c3F)cc(=O)n12 [compound 75, 2-[7-[[2-fluoro-3-(trifluoromethyl)phenyl]methyl]-5-oxo-2-(trifluoromethyl)thiazolo[3,2-a]pyrimidin-3-yl]-N-methyl-acetamide] | 28.9 µM |
| CNC(=O)Cc1c(C(F)(F)F)sc2nc(Cn3nc(C4CC4)cc3C(F)(F)F)cc(=O)n12 [compound 79, 2-[7-[[3-cyclopropyl-5-(trifluoromethyl)pyrazol-1-yl]methyl]-5-oxo-2-(trifluoromethyl)thiazolo[3,2-a]pyrimidin-3-yl]-N-methyl-acetamide] | 14.3 µM |
| Cc1sc2nc(Cc3cccc(C(F)(F)F)c3F)cc(=O)n2c1Cc1ncc[nH]1 [compound 81, 7-[[2-fluoro-3-(trifluoromethyl)phenyl]methyl]-3-(1H-imidazol-2-ylmethyl)-2-methyl-thiazolo[3,2-a]pyrimidin-5-one] | 52 µM |
| CC1CC1c1c(C(F)(F)F)sc2nc(Cc3cccc(C#N)c3F)cc(=O)n12 (centres unmarked) [compound 84, 2-fluoro-3-[[3-(2-methylcyclopropyl)-5-oxo-2-(trifluoromethyl)thiazolo[3,2-a]pyrimidin-7-yl]methyl]benzonitrile] | 11.2 µM |
| Cc1sc2nc(Oc3cccc(C(F)(F)F)c3F)cc(=O)n2c1C1CC1C (centres unmarked) [compound 86, 7-[2-fluoro-3-(trifluoromethyl)phenoxy]-2-methyl-3-(2-methylcyclopropyl)thiazolo[3,2-a]pyrimidin-5-one] | 10.5 µM |
| CCNC(=O)c1c(C(C)C)sc2nc(Cc3cccc(C(F)(F)F)c3F)cc(=O)n12 [compound 87, N-ethyl-7-[[2-fluoro-3-(trifluoromethyl)phenyl]methyl]-2-isopropyl-5-oxo-thiazolo[3,2-a]pyrimidine-3-carboxamide] | 42 µM |
| O=c1cc(Cn2nc(C(F)(F)F)cc2Cl)nc2sc3c(n12)CCC3 [compound 89] | 9.04 µM |
| O=c1cc(Cc2cccc(C(F)(F)F)c2F)nc2sc3c(n12)C(CO)CC3 (centres unmarked) [compound 92] | 47.1 µM |
| O=c1cc(Cn2nc(C(F)(F)F)cc2C2CC2)nc2sc3c(n12)C(CO)CC3 (centres unmarked) [compound 95] | 9.2 µM |

Molecules with a lower EC50, results first:

| EC50 | SMILES |
| --- | --- |
| 3.71 µM | CNC(=O)c1c(C(F)(F)F)sc2nc(Cc3cccc(C(F)(F)F)c3F)cc(=O)n12 [compound 63, 7-[[2-fluoro-3-(trifluoromethyl)phenyl]methyl]-N-methyl-5-oxo-2-(trifluoromethyl)thiazolo[3,2-a]pyrimidine-3-carboxamide] |
| 0.551 µM | Cc1sc2nc(Cn3nc(C(F)(F)F)cc3Cl)cc(=O)n2c1C(=O)NCC(F)(F)F [compound 65, 7-[[5-chloro-3-(trifluoromethyl)pyrazol-1-yl]methyl]-2-methyl-5-oxo-N-(2,2,2-trifluoroethyl)thiazolo[3,2-a]pyrimidine-3-carboxamide] |
| 1.69 µM | Cc1sc2nc(Cn3nc(Cl)cc3C(F)(F)F)cc(=O)n2c1C(=O)NCC(F)(F)F [compound 66, 7-[[3-chloro-5-(trifluoromethyl)pyrazol-1-yl]methyl]-2-methyl-5-oxo-N-(2,2,2-trifluoroethyl)thiazolo[3,2-a]pyrimidine-3-carboxamide] |
| 2.92 µM | CNC(=O)c1c(C(F)(F)F)sc2nc(Cc3cccc(C#N)c3F)cc(=O)n12 [compound 70, 7-[(3-cyano-2-fluoro-phenyl)methyl]-N-methyl-5-oxo-2-(trifluoromethyl)thiazolo[3,2-a]pyrimidine-3-carboxamide] |
| 1.37 µM | CCNC(=O)Cc1c(C)sc2nc(Cc3cccc(C(F)(F)F)c3F)cc(=O)n12 [compound 71, N-ethyl-2-[7-[[2-fluoro-3-(trifluoromethyl)phenyl]methyl]-2-methyl-5-oxo-thiazolo[3,2-a]pyrimidin-3-yl]acetamide] |
| 0.507 µM | N#Cc1cccc(Cc2cc(=O)n3c(C4CC4C(F)(F)F)c(Cl)sc3n2)c1F (centres unmarked) [compound 74, 3-[[2-chloro-5-oxo-3-[2-(trifluoromethyl)cyclopropyl]thiazolo[3,2-a]pyrimidin-7-yl]methyl]-2-fluoro-benzonitrile] |
| 0.436 µM | CCNC(=O)c1c(C)sc2nc(Cn3nc(C(F)(F)F)cc3C3CC3)cc(=O)n12 [compound 76, 7-[[5-cyclopropyl-3-(trifluoromethyl)pyrazol-1-yl]methyl]-N-ethyl-2-methyl-5-oxo-thiazolo[3,2-a]pyrimidine-3-carboxamide] |
| 0.271 µM | Cc1sc2nc(Oc3cccc(C#N)c3F)cc(=O)n2c1C1CC1C(F)(F)F (centres unmarked) [compound 77, 2-fluoro-3-[2-methyl-5-oxo-3-[2-(trifluoromethyl)cyclopropyl]thiazolo[3,2-a]pyrimidin-7-yl]oxy-benzonitrile] |
| 2.96 µM | CNC(=O)Cc1c(C(F)(F)F)sc2nc(Cn3nc(C(F)(F)F)cc3C3CC3)cc(=O)n12 [compound 78, 2-[7-[[5-cyclopropyl-3-(trifluoromethyl)pyrazol-1-yl]methyl]-5-oxo-2-(trifluoromethyl)thiazolo[3,2-a]pyrimidin-3-yl]-N-methyl-acetamide] |
| 0.0787 µM | CCNC(=O)c1c(C)sc2nc(CN(CC)c3ccc(F)cc3)cc(=O)n12 [compound 82, N-ethyl-7-[(N-ethyl-4-fluoro-anilino)methyl]-2-methyl-5-oxo-thiazolo[3,2-a]pyrimidine-3-carboxamide] |
| 0.154 µM | CCNC(=O)c1c(C(F)(F)F)sc2nc(CN(CC)c3ccc(F)cc3)cc(=O)n12 [compound 83, N-ethyl-7-[(N-ethyl-4-fluoro-anilino)methyl]-5-oxo-2-(trifluoromethyl)thiazolo[3,2-a]pyrimidine-3-carboxamide] |
| 2.39 µM | CC1CC1c1c(Cl)sc2nc(Cc3cccc(C#N)c3F)cc(=O)n12 (centres unmarked) [compound 85, 3-[[2-chloro-3-(2-methylcyclopropyl)-5-oxo-thiazolo[3,2-a]pyrimidin-7-yl]methyl]-2-fluoro-benzonitrile] |
| 3.7 µM | N#Cc1cccc(Cc2cc(=O)n3c(C4CC4C(F)(F)F)c(C(F)(F)F)sc3n2)c1F (centres unmarked) [compound 88, 2-fluoro-3-[[5-oxo-2-(trifluoromethyl)-3-[2-(trifluoromethyl)cyclopropyl]thiazolo[3,2-a]pyrimidin-7-yl]methyl]benzonitrile] |
| 1.22 µM | O=c1cc(Cn2nc(Cl)cc2C(F)(F)F)nc2sc3c(n12)CCC3 [compound 90] |
| 1.03 µM | CCNC(=O)c1c(OC)sc2nc(Cc3cccc(C(F)(F)F)c3F)cc(=O)n12 [compound 91, N-Ethyl-7-[[2-fluoro-3-(trifluoromethyl)phenyl]methyl]-2-methoxy-5-oxo-thiazolo[3,2-a]pyrimidine-3-carboxamide] |
| 1.83 µM | CCc1sc2nc(Cc3cccc(C(F)(F)F)c3F)cc(=O)n2c1C(=O)NC [compound 93, 2-ethyl-7-[[2-fluoro-3-(trifluoromethyl)phenyl]methyl]-N-methyl-5-oxo-thiazolo[3,2-a]pyrimidine-3-carboxamide] |
| 2.08 µM | N#CC1CC1c1c(C(F)(F)F)sc2nc(Cc3cccc(C(F)(F)F)c3F)cc(=O)n12 (centres unmarked) [compound 94, 2-[7-[[2-fluoro-3-(trifluoromethyl)phenyl]methyl]-5-oxo-2-(trifluoromethyl)thiazolo[3,2-a]pyrimidin-3-yl]cyclopropanecarbonitrile] |
| 1.21 µM | CNC(=O)c1c(C)sc2nc(Cn3nc(C(F)(F)F)cc3Cl)cc(=O)n12 [compound 96, 7-[[5-chloro-3-(trifluoromethyl)pyrazol-1-yl]methyl]-N,2-dimethyl-5-oxo-thiazolo[3,2-a]pyrimidine-3-carboxamide] |
| 5.11 µM | CNC(=O)c1c(C)sc2nc(Cn3nc(Cl)cc3C(F)(F)F)cc(=O)n12 [compound 97, 7-[[3-chloro-5-(trifluoromethyl)pyrazol-1-yl]methyl]-N,2-dimethyl-5-oxo-thiazolo[3,2-a]pyrimidine-3-carboxamide] |

From patent publication US9988400B2 (Genentech, Inc., priority 2013, dated 2018)
